Results reported in patent US10500142B2, “Oral care compositions” (COLGATE-PALMOLIVE COMPANY, priority 2015, dated 2019).

What was measured:
[1] = Solution preparation: clarity / dissolution of SnF2 with TSPP or TKPP in water; format: physicochemical; conditions: 2% SnF2 in water with TSPP or TKPP; as prepared
Method: The solutions are prepared by first dissolving TSPP or TKPP in water (mixing under high heat if necessary) and then adding a 20% stannous fluoride solution to the clear solution with an automatic pipet. […] All of the solutions contain 2% SnF2.

[2] = SnCl2.2H2O/pyrophosphate solutions: appearance on preparation and aging at room temperature; format: physicochemical; conditions: 3% SnCl2.2H2O; aged overnight at room temperature
Method: Solutions are prepared by dissolving TSPP in deionized water (mixing under heat if necessary) and then adding 0.6 g of SnCl2.2H2O to make 20-gram solutions.
The solutions with a P/Sn molar ratio spanning from 0.5 to 5 containing 3% SnCl2.2H2O are aged overnight at room temperature. A 3% SnCl2.2H2O solution is used as a control.
Solutions are prepared by dissolving TKPP in deionized water (mixing under heat if necessary) and then adding 0.6 g SnCl2.2H2O to make 20-g solutions.

| Structure (SMILES) | appearance / dissolution of the solution on preparation [1] | appearance after aging overnight [2] |
| --- | --- | --- |
| [F][Sn][F] [2% stannous fluoride solution, stannous fluoride] | precipitate almost immediately after dissolution |  |
| O.O.[Cl][Sn][Cl] [3% SnCl2.2H2O solution, SnCl2.2H2O] |  | cloudy precipitate that settles |
